Assay results taken from US11738091B2, “Method for terminating cancer cells with an azole-based compound” (Imam Abdulrahman Bin Faisal University, priority 2019, dated 2023).

Legend:
HCT-116 cells [1] = assay: MTT assay of cancer cell viability; conditions: for attenuating cancer cells proliferation (in words) / effect on cancer cell survivability (in words) / comparison among the five conjugates in decreasing cancer cells proliferation: HCT-116; for dose dependence of effect on cancer cells viability: HCT-116, MTT staining; for comparison among the five conjugates in decreasing cancer cells proliferation: versus Conj. 1, Conj. 2 and Conj. 5
Description: CANCER CELL TREATMENTS: Human colorectal carcinoma cells (HCT-116) cells were grown according to a method described in Khan, F. A.; Akhtar, S.; Almohazey, D.; Alomari, M.; Almofty, S. A.; Eliassari, A. “Fluorescent magnetic submicronic polymer (FMSP) nanoparticles induce cell death in human colorectal carcinoma cells” Artif Artif. Cells, Nanomed., Biotechnol. 2018, (doi: 10.1080/21691401.2018.1491476). HCT-116 cells were grown in Dulbecco Modified Eagle Medium (DMEM), 10% fetal bovine serum, L-glutamine, selenium chloride, penicillin, and streptomycin. The cells were cultured in a CO2 incubator (Heracell 150i, Thermo-scientific, USA) at 37° C. under 5% CO2 for 48 to 72 hours. Confluenced cells were seeded into 96-well cell plates and, once the cells became 80% confluenced, the cancer cells were treated with different concentrations ([…]) of Conj. 1, Conj. 2, Conj. 3, Conj. 4, Conj. 5 respectively. […] Each sample was taken in triplicate to obtain a statistical analysis.
CANCER CELLS VIABILITY BY MTT ASSAY: To examine effect of Conj. 1, Conj. 2, Conj. 3, Conj. 4, Conj. 5 on cancer cells, a 3-(4,5-dimethylthiazol-2-yl)-2,5-diphenyltetrazolium bromide (MTT) assay was conducted on the cells. The cancer cells were seeded at 6×10^4 cells/mL concentration in 96-well culture plates containing DMEM, 10% Fetal bovine serum, penicillin, and streptomycin and were incubated in CO2 incubator until the cells were 80% confluenced. The cancer cells were then treated with Conj. 1, Conj. 2, Conj. 3, Conj. 4, Conj. 5 at concentrations of 1.3, 3.26, and 6.5 mg/mL, whereby no conjugate was added in the control groups. A 5.0 mg/mL MTT solution was added into each well, and the cells were again incubated for 4 hours in the CO2 incubator and finally media was changed with the addition of DMSO. The samples were then measured using an ELISA plate reader (Biotek Instruments, USA) at wavelength 570 nm.
The following formula was used to calculate percentage of cell viability: % of Cell viability=[Optical density (O.D) of Conj. 1, Conj. 2, Conj. 3, Conj. 4, or Conj. 5 cells]/[Optical density (O.D) of control cells]×100.
1, Conj. 2, Conj. 3, Conj. 4, Conj. 5 treated groups were calculated. All statistical analyses were completed with GraphPad Prism 6 (GraphPad Software). The difference between control and Conj. 1, Conj. 2, Conj. 3, Conj. 4, Conj. 5 groups by a one-way ANOVA test (*p<0.05, **p<0.01; ***p<0.001) was taken as statistically significant.

HCT-116 cells [2] = assay: Cancer cell morphology by inverted microscope; format: cell-based, human; conditions: 48 hours, 200x magnification
Source text: Cells, Nanomed., Biotechnol. 2018, (doi: 10.1080/21691401.2018.1491476). […] 1, Conj. 2, Conj. 3, Conj. 4, Conj. 5 respectively.
CANCER CELL MORPHOLOGY: After the treating the HTC-116 cells with Conj. 1, Conj. 2, Conj. 3, Conj. 4, Conj. 5, the cells were observed using an inverted microscope (TS100F Eclipse, Nikon, Japan) to evaluate the anatomical and morphological changes.

## SiO2-3GPS-Btri [Conj. 4]
HCT-116 cells [1]
  attenuating cancer cells proliferation (in words): highly effective
  effect on cancer cell survivability (in words): profound effects
  dose dependence of effect on cancer cells viability: dose dependent effects
  comparison among the five conjugates in decreasing cancer cells proliferation: more effective
HCT-116 cells [2]; HCT-116, 1.3 mg/mL
  cancer cell morphology: disintegration of cancer cell bodies
HCT-116 cells [2]; HCT-116, 3.26 mg/mL
  cancer cell morphology: strong nuclear condensation and augmentation
HCT-116 cells [2]; HCT-116, 6.5 mg/mL
  cancer cell morphology: strong nuclear condensation and augmentation

## SiO2-3GPS-Atet [Conj. 3]
HCT-116 cells [1]
  attenuating cancer cells proliferation (in words): highly effective
  effect on cancer cell survivability (in words): profound effects
  dose dependence of effect on cancer cells viability: dose dependent effects
  comparison among the five conjugates in decreasing cancer cells proliferation: more effective
HCT-116 cells [2]; HCT-116, 1.3 mg/mL
  cancer cell morphology: significant levels of nucleus condensation and nuclear augmentation
HCT-116 cells [2]; HCT-116, 3.26 mg/mL
  cancer cell morphology: nuclear condensation and augmentation of cancer cells
HCT-116 cells [2]; HCT-116, 6.5 mg/mL
  cancer cell morphology: significant loss of cell population

## SiO2-3GPS-Imi [Conj. 5]
HCT-116 cells [1]
  attenuating cancer cells proliferation (in words): highly effective
  effect on cancer cell survivability (in words): profound effects
  dose dependence of effect on cancer cells viability: dose dependent effects
HCT-116 cells [2]; HCT-116, 1.3 mg/mL
  cancer cell morphology: high levels of nucleus condensation and nuclear augmentation
HCT-116 cells [2]; HCT-116, 3.26 mg/mL
  cancer cell morphology: strong nuclear condensation and augmentation and the beginning of cell membrane disruption and cell death
HCT-116 cells [2]; HCT-116, 6.5 mg/mL
  cancer cell morphology: significant loss of cell population

## SiO2-3GPS-Tri [Conj. 1]
HCT-116 cells [1]
  attenuating cancer cells proliferation (in words): highly effective
  effect on cancer cell survivability (in words): profound effects
  dose dependence of effect on cancer cells viability: dose dependent effects
HCT-116 cells [2]; HCT-116, 1.3 mg/mL
  cancer cell morphology: strong nucleus condensation and nuclear augmentation
HCT-116 cells [2]; HCT-116, 3.26 mg/mL
  cancer cell morphology: further nucleus condensation and augmentation
HCT-116 cells [2]; HCT-116, 6.5 mg/mL
  cancer cell morphology: significant loss of cell population

## SiO2-3GPS-Atri [Conj. 2]
HCT-116 cells [1]
  attenuating cancer cells proliferation (in words): highly effective
  effect on cancer cell survivability (in words): profound effects
  dose dependence of effect on cancer cells viability: dose dependent effects
HCT-116 cells [2]; HCT-116, 1.3 mg/mL
  cancer cell morphology: strong nucleus condensation and nuclear augmentation
HCT-116 cells [2]; HCT-116, 3.26 mg/mL
  cancer cell morphology: further nucleus condensation and augmentation
HCT-116 cells [2]; HCT-116, 6.5 mg/mL
  cancer cell morphology: significant loss of cell population
